How the values were obtained:
[1] = tested on: mouse preadipocyte 3T3-L1; assay: Differentiation-inducing test of mouse preadipocyte 3T3-L1 (Oil Red O staining); format: cell-based; settings: 3T3-L1 cells, differentiation cocktail with insulin for 6 days
Excerpt: Mouse preadipocyte 3T3-L1 is used for screening of activities for lipid metabolism improvement and anti-diabetes, since 3T3-L1 is induced to the differentiation of small adipocyte under proper conditions. This differentiated fat cell produces lipid bodies that can be stained with Oil Red O. PPAR (Peroxisome Proliferator-Activated Receptor) belongs to nuclear receptor superfamily. PPARγ is importantly related to differentiation of fat cells, e.g., activated PPARγ promotes differentiation from preadipocyte to adipocyte. Furthermore, PPARγ promotes apoptosis of large fat cells. Compounds activating PPARγ (PPARγ agonists) improve insulin resistance by inducing apoptosis of large fat cells that are willing to produce TNF-α and free fatty acids, reluctant to import sugars, and induce insulin resistance. PPARγ agonists further reduce blood glucose levels, and exert anti-diabetes activity by inducing differentiation to small fat cells that are reluctant to produce TNF-α and free fatty acids, willing to import glucose in blood, and improve glucose metabolism. Currently, PPARγ agonists such as rosiglitazone (thiazolidine) are used clinically to treat patients with type-2 diabetes mellitus.
In the present EXAMPLE, we carried out to examine whether aromatic compound glycosides can promote differentiation to small fat cells, using mouse 3T3-L1 preadipocyte.
Thus, we examined the PPARγ agonistic activities of compounds 3, 4, 20, and 21, which were selected as the representatives.
The 3T3-L1 cell line was purchased from Japanese Collection of Research Bioresources Cell Bank (JCRB, Osaka, Japan). The 3T3-L1 cells were cultured in DMEM with 10% fetal calf serum (FCS, Sigma Aldrich, St Lous, USA) and antibiotics ([…]). The cells were seeded in collagen coated 12-well plates at 10,000 cells/well (1 mL) and grown to confluence for 2 days. The differentiation procedure was initiated 2 days after cells reached confluence by changing the medium to the differentiation cocktail ([…] in DMEM containing 10% FBS and antibiotics) with or without various concentrations of test compounds (positive control, thiazolidine; four aromatic compound glycosite) dissolved in DMSO (10^3-10^4 times dilutions of the stocks were used). Thereafter, the cells were grown in the differentiation cocktail for 6 days.
Then, Oil Red O (ORO) staining was performed to evaluate the ratio of the differentiated 3T3-L1 cells. […] ORO was then extracted from fixed cells with 100% isopropanol (1 mL), and OD500 values of isopropanol solution, which reflect the ORO amount imported into the cells (=the lipid (body) amount of the differentiated cells), were measured by 96-well microplate reader. […]

rat brain homogenate = assay: Peroxidation-inhibiting test of rat brain lipids (rat brain homogenate, TBA method); format: biochemical; settings: for IC50: 1 hour at 37° C., malondialdehyde by A532, read-out: IC50 (50% inhibition concentration of rat brain lipid-peroxidation)
Method: The lipid peroxidation-inhibiting assay with rat brain homogenate is an experimental system for evaluating damages of biological system caused by the generation of ROS (Reactive Oxygen Species). It is because the rat brain is an organ that is easily oxidized by ROS. Using this system, we evaluated antioxidative activity of compounds 1-5.
Using rat brain homogenate, we examined lipid peroxidation-inhibiting activities of the test compounds. It was performed by incubating rat brain homogenate to proceed with lipid peroxidation reactions, with each compound and with no compound (as the control), by measuring the amounts of consequently generated malondialdehyde by absorbance at 532 nm in the TBA method, and by comparing the amounts of the malondialdehyde products between them.
We preincubated IWAKI disposable test tube ([…]×100 mm) that contained 0.6 mL of 100 mM phosphate buffer (pH 7.4), 0.05 mL of each test sample-including solution, 0.1 mL of 1 mM ascorbic acid, and 0.05 mL of distilled water at 37° C. for 5 min. And 0.2 mL of 2.5% (w/v) rat brain homogenate was added to the test tube, and incubated for 1 hour at 37° C. with shaking (150 rpm). Then, 1 mL of 0.2 N HCl solution including 20% (W/V) trichloroacetic acid and 0.5% (W/V) 2-thiobarbituric acid was added to the above test tube to stop the reaction. Next, this test tube containing each reaction solution was boiled for 30 min at 100° C. to produce color. After chilled on ice, each solution from the test tube was centrifuged with 3,000 rpm for 10 min, and the absorbance of each supernatant was measured at 532 nm (A532).
The lipid peroxidation-inhibiting ratio (%) of each extracted solution (containing each flavonoid glycoside as a test compound (T)) was calculated using the following Formula 1. (1−[T−B]/[C−B])′100. Formula 1
T (test), C (control), and B (blank) are A532 of a test compound with the rat brain homogenate, the control (no compound (instead ethanol) with the homogenate), and the blank control (no compound (instead ethanol) without the homogenate (instead phosphate buffer)), respectively. The lipid peroxidation-inhibiting activity was determined as the IC50 value, representing the concentration at which 50% inhibition was observed.
(Peroxidation-Inhibiting Test of Rat Brain Lipids)

| IC50 (rat brain homogenate) | Structure (SMILES) | activity for differentiation induction to small fat cells (adipose) [1] | lipid peroxidation-inhibiting activity (in words) (rat brain homogenate) |
| --- | --- | --- | --- |
| 1500 nM | O=C(/C=C/c1ccc(O)c(O)c1)Oc1cc(-c2oc3cc(O[C@@H]4OC(C(=O)O)[C@@H](O)C(O)C4O)cc(O)c3c(=O)c2O[C@@H]2OC(CO)[C@@H](O)C(O)C2O[C@@H]2OC(CO)[C@@H](O)C(O)C2O)ccc1O (stereo partly shown) [Compound 20] | strong activity for differentiation induction to small fat cells | possess peroxidation-inhibiting activity |
| 23000 nM | O=C(/C=C/c1ccc(O)c(O)c1)Oc1ccc(-c2oc3cc(O[C@@H]4OC(C(=O)O)[C@@H](O)C(O)C4O)cc(O)c3c(=O)c2O[C@@H]2OC(CO)[C@@H](O)C(O)C2O[C@@H]2OC(CO)[C@@H](O)C(O)C2O)cc1 (stereo partly shown) [Compound 21] | strong activity for differentiation induction to small fat cells | possess peroxidation-inhibiting activity |
| 1500 nM | CC1OC(Oc2c(-c3ccc(O)c(OC(=O)/C=C/c4ccc(O)c(O)c4)c3)oc3cc(O[C@@H]4OC(CO)[C@@H](O)[C@H](O)C4O)cc(O)c3c2=O)C(O[C@@H]2OC(CO)[C@@H](O)[C@H](O)C2O)C(O)C1O (stereo partly shown) [Compound 5] |  |  |
| 1100 nM | O=C(/C=C/c1ccc(O)c(O)c1)Oc1cc(-c2oc3cc(O)cc(O)c3c(=O)c2O[C@@H]2OC(CO)[C@@H](O)[C@H](O)C2O[C@@H]2OC(CO)[C@@H](O)[C@H](O)C2O)ccc1O (stereo partly shown) [Compound 4] | strong activity for differentiation induction to small fat cells |  |

Continued, molecule first:

| Structure (SMILES) | IC50 (rat brain homogenate) | activity for differentiation induction to small fat cells (adipose) [1] | lipid peroxidation-inhibiting activity (in words) (rat brain homogenate) |
| --- | --- | --- | --- |
| CC1OC(Oc2cc(O)c3c(=O)c(OC4OC(C)C(O)C(O)C4O[C@@H]4OC(CO)[C@@H](O)[C@H](O)C4O)c(-c4ccc(O)c(OC(=O)/C=C/c5ccc(O)c(O)c5)c4)oc3c2)C(O)C(O)C1O (stereo partly shown) [Compound 3] | 1400 nM | strong activity for differentiation induction to small fat cells |  |
| CC1OC(Oc2cc(O)c3c(=O)c(O[C@@H]4OC(CO)[C@@H](O)C(O)C4O[C@@H]4OC(CO)[C@@H](O)C(O)C4O)c(-c4ccc(OC(=O)/C=C/c5ccc(O)c(O)c5)cc4)oc3c2)C(O)C(O)C1O (stereo partly shown) [Compound 2] | 15000 nM |  |  |
| CC1OC(Oc2cc(O)c3c(=O)c(O[C@@H]4OC(CO)[C@@H](O)C(O)C4O[C@@H]4OC(CO)[C@@H](O)C(O)C4O)c(-c4ccc(O)c(OC(=O)/C=C/c5ccc(O)c(O)c5)c4)oc3c2)C(O)C(O)C1O (stereo partly shown) [Compound 1] | 1700 nM |  |  |
